Structures are written as SMILES.

Consider one compound from publication PMC9950745, “A novel promising laccase from the psychrotolerant and halotolerant Antarctic marine Halomonas sp. M68 strain” (Frontiers in Microbiology, 2023).

The test system of the assay is T1, Ant laccase.
T1 construct: gene copA
Nature of the assay: spectrophotometric oxidation assay at […] nm, Michaelis-Menten fit. It is filed as biochemical. The settings on record: 50 mM sodium acetate, pH 5.0, 20°C; partially purified preparation SNP30.

Consider `CCn1c(=NN=c2sc3cc(S(=O)(=O)O)ccc3n2CC)sc2cc(S(=O)(=O)O)ccc21` [ABTS, 2,2′-azino-bis (3-ethylbenzothiazoline-6-sulfonic acid)], for which the Km (usually the concentration of substrate that gives half-maximal velocity) was ~2000 µM.
